From patent EP0100569A1, “Spasmolytically active (+)S-enantiomer of secoverine” (DUPHAR INT[…] B.V, priority 1982, dated 1984)
Where a name gives a salt, the structure may show the parent alone.

Tests used:
vas deferens of the rat = assay: Potentiation of the activity of noradrenaline on the vas deferens in vitro; type: cell-based; conditions: for EC (2-fold shift): Rattus norvegicus, negative logarithm of the molar concentration giving a shift to the left of a factor 2 of the noradrenaline curve, read-out: pP2-value (converted); for noradrenaline potentiation: rat vas deferens in vitro
Text: The test used is a modification of the method as described by Ursillo and Jacobsen, J. Pharmacol. Ex. Ther. 148, (1965), 247.
The smallest dose which gave a potentiating effect was […], and the potentiating activity was maximum in a quantity of 5 x 10 7M. Higher dosages caused a non--specific decrease of the maximum of the noradrenaline curve.
For quantifying the effect at the 50% point of the contraction curve (maximum of the control noradrenaline curve = 100%), the shift of the curve obtained with the compound to be tested (expressed as DR) was measured. The pP2-values were calculated in the same manner as the pA2-values mentioned sub b), according to the equation
^pP2 ^= -log [secoverine] + log (DR-1).

cornea of male mice = assay: Local anaesthetic activity on the cornea; type: in vivo; conditions: concentration of solution giving local anaesthesia in 50% of the animals, 10 per dose, determined graphically
Procedure: The anaesthetic activity on the cornea of male mice (18-22 g), 10 animals per dose, was determined according to the method by Weidmann and Petersen, J. Pharmacol. Exp. Ther., 115 (1955), 246. The concentration of the solution of the compounds which gave local anaesthesia in 50% of the animals was determined graphically (EC50--value): […]

guinea pig ileum = assay: Peripheral spasmolytic activity in vitro, 4-point analysis, carbachol as spasmogen; type: cell-based
Procedure: These tests were carried out according to the normal 4--point analysis in which the termina-1 guinea pig ileum was used as isolated organ and carbachol was used as a cholinergic spasmogen.
(§1) The required organs were isolated from killed guinea pigs and the contents and adherent tissues were carefully removed from suitable pieces. The said organs were then suspended in a bath containing 50 ml of Tyrode solution through which oxygen was led. The spasmogenically active substance (carbachol) was added to the bath inter- mittem tly and, after a constant response to the spasmogen had been obtained, the spasmolytic activity of the substances to be tested was measured by adding them to the bath 30 seconds prior to the spasmogen.
The relative activity of the (+)-enantiomer of secoverine as compared with the racemate was calculated fron, a series of 4-point assays: the (+)-enantiomer of secoverine was 1.86 times as active as the racemate.

rat jejunum = assay: Peripheral spasmolytic activity in vitro, furtrethonium as spasmogen; type: cell-based
Procedure: as §1
Similar results were obtained by using rat jejunum as an organ and using furtrethonium as a spasmogenically active substance: the (+)-enantiomer of secoverine now was 2.10 times as active as the racemate.

guinea pigs = assay: Anticholinergic activity in vivo, carbachol as spasmogen; conditions: i.v.
Procedure: These tests were carried out according to the method by J.M.A. Zwagemakers, Arzneimittelforschung, 30 (II), (1980), 1517-1526 in which carbachol was used as a spasmogenically active substance. After a constant response to the spasmogen had been obtained, the compound to be tested was administered intravenously (i.v.) to guinea pigs 3 minutes prior to the next quantity of spasmogenically active substance. The activity of the compounds was determined for 52 minutes. Contractions obtained after preceding administration of the substance to be tested were expressed as percentages of the average of two control values and were plotted graphically. The average percentage of inhibition during the period of 52 minutes was calculated from the area under the curve, and the maximum inhibition and the duration of the spasmolytic activity were estimated by means of the time-contraction curve. The spasmolytic activity is considered to be terminated when two successive contractions show less than 20% inhibition.

SMILES	EC (2-fold shift) (vas deferens of the rat) [µM]	noradrenaline potentiation (vas deferens of the rat)	EC50-value (% w/vol) (cornea of male mice)	relative activity as compared with the racemate (guinea pig ileum; guinea pig ileum, carbachol, series of 4-point assays) [times]	anticholinergic spasmolytic activity in peripheral organs relative to the racemate (guinea pig ileum; summary statement)	relative activity as compared with the racemate (rat jejunum) [times]	activity in vivo relative to the racemate (guinea pigs)
CCN(CCCC(=O)C1CCCCC1)C(C)Cc1ccc(OC)cc1 (racemic) [racemate]	0.309	significant noradrenaline potentiation	0.13	–	–	–	–
CCN(CCCC(=O)C1CCCCC1)[C@@H](C)Cc1ccc(OC)cc1 [(+)-enantiomer of secoverine, (+)S-1-cyclohexyl-4-[ethyl(p-methoxy-α-methylphenethyl)--amino]-l-butanone hydrochloride]	0.263	significant noradrenaline potentiation	0.20	1.86	approximately twice as strong	2.10	about twice as active
CCN(CCCC(=O)C1CCCCC1)[C@H](C)Cc1ccc(OC)cc1 [(-)-enantiomer of secoverine]	0.17	significant noradrenaline potentiation	0.08	–	–	–	–
